{"source": "paper PMC6327040", "about": "“A novel scaffold for EGFR inhibition: Introducing N-(3-(3-phenylureido)quinoxalin-6-yl) acrylamide derivatives” (Scientific Reports, 2019)", "key": {"EGFRL858R": {"target": "EGFRL858R (Homo sapiens, UniProt P00533, L858R)", "sequence (P00533 25-1210 L858R)": "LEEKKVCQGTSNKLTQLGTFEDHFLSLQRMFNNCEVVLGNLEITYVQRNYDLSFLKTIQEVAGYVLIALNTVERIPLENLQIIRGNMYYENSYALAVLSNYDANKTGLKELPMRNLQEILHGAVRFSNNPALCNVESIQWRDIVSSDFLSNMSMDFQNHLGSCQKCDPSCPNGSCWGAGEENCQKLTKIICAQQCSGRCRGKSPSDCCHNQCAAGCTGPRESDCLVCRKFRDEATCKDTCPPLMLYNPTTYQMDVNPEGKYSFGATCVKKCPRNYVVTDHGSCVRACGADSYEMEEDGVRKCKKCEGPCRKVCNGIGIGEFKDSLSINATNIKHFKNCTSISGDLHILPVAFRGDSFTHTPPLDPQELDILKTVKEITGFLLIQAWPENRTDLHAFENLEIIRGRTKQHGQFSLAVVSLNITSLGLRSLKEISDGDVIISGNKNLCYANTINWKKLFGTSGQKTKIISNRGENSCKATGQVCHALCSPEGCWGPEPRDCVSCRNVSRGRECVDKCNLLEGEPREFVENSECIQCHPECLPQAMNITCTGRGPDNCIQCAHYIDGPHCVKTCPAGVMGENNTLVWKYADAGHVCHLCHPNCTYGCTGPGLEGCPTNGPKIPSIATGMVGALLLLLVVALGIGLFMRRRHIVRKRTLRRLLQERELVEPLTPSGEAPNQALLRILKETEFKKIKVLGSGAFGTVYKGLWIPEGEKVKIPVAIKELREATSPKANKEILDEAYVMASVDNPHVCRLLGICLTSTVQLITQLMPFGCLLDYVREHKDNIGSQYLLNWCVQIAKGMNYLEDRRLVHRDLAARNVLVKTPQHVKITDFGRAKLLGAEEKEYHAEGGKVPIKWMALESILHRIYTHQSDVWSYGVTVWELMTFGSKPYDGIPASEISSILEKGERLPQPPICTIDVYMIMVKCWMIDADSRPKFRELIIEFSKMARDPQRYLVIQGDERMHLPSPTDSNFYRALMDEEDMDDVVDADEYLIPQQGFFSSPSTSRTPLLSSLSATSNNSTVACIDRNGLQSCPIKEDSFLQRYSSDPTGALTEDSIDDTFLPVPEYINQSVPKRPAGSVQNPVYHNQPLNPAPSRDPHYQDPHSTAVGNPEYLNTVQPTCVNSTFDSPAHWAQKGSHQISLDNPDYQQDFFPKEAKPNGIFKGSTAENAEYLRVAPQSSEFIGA", "experiment": "HTRF KinEASE-TK biochemical assay (TR-FRET), EGFR-L858R", "quoted_text": "(§1) An artificial substrate peptide (TK-substrate from Cisbio) was phosphorylated by EGFR. After completion of the reaction (reaction times: 25 min for wild-type, 15 min for L858R, 20 min for T790M/L858R), the reaction was stopped by addition of a buffer containing EDTA as well as, an anti-phosphotyrosine antibody labeled with europium cryptate and streptavidin labeled with the fluorophore XL665. FRET between europium cryptate and XL665 was measured after an additional hour of incubation to quantify the phosphorylation of the substrate peptide. […] Kinase and inhibitor were preincubated for 30 min (EGFR-wt) and 1 h (EGFR-L858R and EGFR-L858R/T790M) before the reaction was started by addition of ATP and substrate peptide. An EnVision multimode plate reader (Perkin Elmer) was used to measure the fluorescence of the samples at 620 nm (Eu-labeled antibody) and 665 nm (XL665 labeled streptavidin) 50 μs after excitation at 320 nm. The quotient of both intensities for reactions made with eight different inhibitor concentrations was then analyzed using the Quattro Software Suite for IC50-determination. Each reaction was performed in duplicate, and at least three independent determinations of each IC50 were made."}, "EGFRwt": {"target": "EGFRwt (Homo sapiens, UniProt P00533)", "sequence (P00533 25-1210)": "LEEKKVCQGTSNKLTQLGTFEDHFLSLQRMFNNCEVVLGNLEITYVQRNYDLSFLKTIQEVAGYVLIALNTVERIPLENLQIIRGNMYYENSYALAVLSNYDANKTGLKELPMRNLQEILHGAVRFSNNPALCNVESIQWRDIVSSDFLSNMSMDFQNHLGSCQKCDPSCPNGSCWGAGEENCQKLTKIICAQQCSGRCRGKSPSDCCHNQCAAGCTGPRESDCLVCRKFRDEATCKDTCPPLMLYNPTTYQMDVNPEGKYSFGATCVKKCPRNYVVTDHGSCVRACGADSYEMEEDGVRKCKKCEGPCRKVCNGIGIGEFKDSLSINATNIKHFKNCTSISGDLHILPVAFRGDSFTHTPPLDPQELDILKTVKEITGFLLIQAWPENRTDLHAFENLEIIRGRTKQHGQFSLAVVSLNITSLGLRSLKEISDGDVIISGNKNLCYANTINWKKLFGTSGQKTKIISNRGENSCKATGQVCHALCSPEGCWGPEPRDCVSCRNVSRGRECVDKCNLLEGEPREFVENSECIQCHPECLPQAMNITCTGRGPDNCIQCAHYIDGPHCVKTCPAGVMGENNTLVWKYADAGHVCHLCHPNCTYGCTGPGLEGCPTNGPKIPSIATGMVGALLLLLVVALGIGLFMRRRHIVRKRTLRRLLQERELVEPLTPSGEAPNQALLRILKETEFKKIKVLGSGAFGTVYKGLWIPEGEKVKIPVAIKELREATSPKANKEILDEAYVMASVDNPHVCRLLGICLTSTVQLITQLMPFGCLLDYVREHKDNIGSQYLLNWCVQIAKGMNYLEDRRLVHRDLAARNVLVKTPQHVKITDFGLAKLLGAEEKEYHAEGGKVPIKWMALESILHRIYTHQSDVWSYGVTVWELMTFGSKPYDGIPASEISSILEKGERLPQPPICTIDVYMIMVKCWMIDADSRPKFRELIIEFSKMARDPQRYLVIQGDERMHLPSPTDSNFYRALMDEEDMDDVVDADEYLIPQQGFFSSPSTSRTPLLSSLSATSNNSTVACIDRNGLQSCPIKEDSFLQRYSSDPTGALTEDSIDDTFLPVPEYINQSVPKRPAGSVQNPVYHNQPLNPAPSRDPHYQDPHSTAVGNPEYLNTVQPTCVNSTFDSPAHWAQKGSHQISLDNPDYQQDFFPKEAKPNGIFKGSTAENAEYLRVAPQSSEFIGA", "experiment": "HTRF KinEASE-TK biochemical assay (TR-FRET), EGFRwt", "quoted_text": "as §1"}, "EGFRL858R/T790M": {"target": "EGFRL858R/T790M (Homo sapiens, UniProt P00533, L858R/T790M)", "sequence (P00533 25-1210 T790M/L858R)": "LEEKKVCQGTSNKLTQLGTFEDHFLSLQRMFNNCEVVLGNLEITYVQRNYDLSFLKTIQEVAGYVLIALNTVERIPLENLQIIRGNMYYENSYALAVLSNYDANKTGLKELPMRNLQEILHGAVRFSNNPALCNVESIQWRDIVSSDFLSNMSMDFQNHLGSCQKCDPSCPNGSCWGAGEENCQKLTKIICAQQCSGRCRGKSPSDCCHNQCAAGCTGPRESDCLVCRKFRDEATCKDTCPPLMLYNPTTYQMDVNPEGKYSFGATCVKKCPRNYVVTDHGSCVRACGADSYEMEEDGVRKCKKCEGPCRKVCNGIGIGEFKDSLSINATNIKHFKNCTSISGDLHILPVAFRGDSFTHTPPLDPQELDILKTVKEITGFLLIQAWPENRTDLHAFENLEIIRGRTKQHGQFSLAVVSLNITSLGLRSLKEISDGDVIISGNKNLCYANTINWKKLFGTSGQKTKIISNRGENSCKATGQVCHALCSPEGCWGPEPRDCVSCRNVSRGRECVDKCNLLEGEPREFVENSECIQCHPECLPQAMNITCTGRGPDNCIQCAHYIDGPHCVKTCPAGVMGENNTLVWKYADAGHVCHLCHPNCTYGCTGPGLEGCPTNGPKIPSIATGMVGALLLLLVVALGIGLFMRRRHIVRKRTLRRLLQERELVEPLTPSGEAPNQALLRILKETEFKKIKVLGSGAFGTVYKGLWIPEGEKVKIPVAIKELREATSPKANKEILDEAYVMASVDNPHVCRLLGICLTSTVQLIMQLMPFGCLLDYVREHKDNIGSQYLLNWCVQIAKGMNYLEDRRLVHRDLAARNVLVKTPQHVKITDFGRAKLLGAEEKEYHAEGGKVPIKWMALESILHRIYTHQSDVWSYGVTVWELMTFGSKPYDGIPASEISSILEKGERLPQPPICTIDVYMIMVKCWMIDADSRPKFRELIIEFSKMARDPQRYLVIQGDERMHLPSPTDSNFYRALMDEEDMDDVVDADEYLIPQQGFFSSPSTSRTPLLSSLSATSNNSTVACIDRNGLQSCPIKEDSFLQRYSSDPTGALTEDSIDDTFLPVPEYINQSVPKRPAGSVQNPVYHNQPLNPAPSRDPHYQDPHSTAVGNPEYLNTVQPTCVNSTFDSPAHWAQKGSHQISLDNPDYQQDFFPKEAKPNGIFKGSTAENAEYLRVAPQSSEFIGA", "experiment": "HTRF KinEASE-TK biochemical assay (TR-FRET), EGFR-L858R/T790M", "quoted_text": "as §1"}, "[1]": {"system": "patient-derived tumor cell panel", "experiment": "Patient-derived tumor cell panel screening (Oncotest)", "format": "cell-based", "conditions": "single screening concentration of 10 μM", "experimental": "Based on this premise, the inhibitory activity of compounds 7a-m towards a patient-derived tumor cell panel[49] was evaluated, using a single screening concentration of 10 μM. […] In fact, it is worth mentioning that, although the data observed in a cellular assay have no direct correlation to EGFR enzymatic tests, this phenomenon is not unusual and is related to the nature of the assays itself. In enzymatic assays there is no influence of membrane permeability issues, while in cell viability assays compounds must penetrate the cell membrane and resist the cellular environment for long enough for the ligand-receptor interaction to occur and to trigger the biological activity."}, "[2]": {"conditions": "enzymatic in vitro determination"}}}
{"smiles": "C/C=C/C(=O)Nc1ccc2ncc(NC(=O)Nc3ccc(Cl)c(C(F)(F)F)c3)nc2c1", "note": "[Compound 7b, (E)-N-(3-(3-(4-chloro-3-(trifluoromethyl)phenyl)ureido)quinoxalin-6-yl)but-2-enamide]", "values": [{"measurement": "IC50", "setting": "EGFRL858R", "value": "> 10", "unit": "µM"}, {"measurement": "melting point", "value": "277 to 280", "unit": "°C"}, {"measurement": "IC50", "setting": "EGFRwt", "value": "> 10", "unit": "µM"}, {"measurement": "IC50", "setting": "EGFRL858R/T790M", "value": "> 10", "unit": "µM"}]}
{"smiles": "CN(C)C/C=C/C(=O)Nc1ccc2ncc(NC(=O)Nc3ccccc3)nc2c1", "note": "[Compound 7l, (E)-4-(dimethylamino)-N-(3-(3-phenylureido)quinoxalin-6-yl)but-2-enamide]", "values": [{"measurement": "IC50", "setting": "EGFRL858R", "value": "0.032 ± 0.014", "unit": "µM"}, {"measurement": "tumor cell lines' growth inhibition / cytotoxic activity (in words)", "setting": "[1]", "value": "did not inhibit the Oncotest® tumor cell lines’ growth in a significant manner"}, {"measurement": "IC50", "setting": "EGFRwt", "value": "0.101 ± 0.012", "unit": "µM"}, {"measurement": "IC50", "setting": "EGFRL858R/T790M", "value": "0.132 ± 0.049", "unit": "µM"}]}
{"smiles": "C/C=C/C(=O)Nc1ccc2ncc(NC(=O)Nc3ccccc3)nc2c1", "note": "[Compound 7i, (E)-N-(3-(3-phenylureido)quinoxalin-6-yl)but-2-enamide]", "values": [{"measurement": "IC50", "setting": "EGFRL858R", "value": "5.58 ± 4.16", "unit": "µM"}, {"measurement": "melting point", "value": "273 to 276", "unit": "°C"}, {"measurement": "IC50", "setting": "EGFRwt", "value": "> 10", "unit": "µM"}, {"measurement": "IC50", "setting": "EGFRL858R/T790M", "value": "> 10", "unit": "µM"}]}
{"smiles": "O=C(CCl)Nc1ccc2ncc(NC(=O)Nc3ccc(Cl)c(C(F)(F)F)c3)nc2c1", "note": "[Compound 7c, 2-chloro-N-(3-(3-(4-chloro-3-(trifluoromethyl)phenyl)ureido)quinoxalin-6-yl)acetamide]", "values": [{"measurement": "IC50", "setting": "EGFRL858R", "value": "3.24 ± 1.26", "unit": "µM"}, {"measurement": "melting point", "value": "253 to 255", "unit": "°C"}, {"measurement": "IC50", "setting": "EGFRwt", "value": "> 10", "unit": "µM"}, {"measurement": "IC50", "setting": "EGFRL858R/T790M", "value": "2.71 ± 0.412", "unit": "µM"}]}
{"smiles": "C=CC(=O)Nc1ccc2ncc(NC(=O)Nc3cccc(C(F)(F)F)c3)nc2c1", "note": "[Compound 7f, N-(3-(3-(3-(trifluoromethyl)phenyl)ureido)quinoxalin-6-yl)acrylamide]", "values": [{"measurement": "IC50", "setting": "EGFRL858R", "value": "2.16 ± 1.62", "unit": "µM"}, {"measurement": "inhibitory activity on EGFRL858R (in words)", "setting": "EGFRL858R; [2]", "value": "weak activity"}, {"measurement": "melting point", "value": "268 to 271", "unit": "°C"}, {"measurement": "IC50", "setting": "EGFRwt", "value": "2.5 ± 0.735", "unit": "µM"}, {"measurement": "inhibitory activity on EGFRwt (in words)", "setting": "EGFRwt; [2]", "value": "weak activity"}, {"measurement": "IC50", "setting": "EGFRL858R/T790M", "value": "> 10", "unit": "µM"}, {"measurement": "inhibitory activity on EGFRL858R/T790M (in words)", "setting": "EGFRL858R/T790M; [2]", "value": "no inhibitory activity"}]}
{"smiles": "C=CC(=O)Nc1ccc2ncc(NC(=O)Nc3ccc(Cl)c(C(F)(F)F)c3)nc2c1", "note": "[Compound 7a, N-(3-(3-(4-chloro-3-(trifluoromethyl)phenyl)ureido)quinoxalin-6-yl) acrylamide]", "values": [{"measurement": "IC50", "setting": "EGFRL858R", "value": "> 10", "unit": "µM"}, {"measurement": "melting point", "value": "272 to 274", "unit": "°C"}, {"measurement": "IC50", "setting": "EGFRwt", "value": "> 10", "unit": "µM"}, {"measurement": "IC50", "setting": "EGFRL858R/T790M", "value": "> 10", "unit": "µM"}]}
